Test system: Caski cells
Test: Azide-cyclooctyne templated assembly on HPV16 E6/E7 in transfected living cells, sandwich detection of ligated product
Type: cell-based, human
Details: Lipofectamine 2000 transfection, 24 hours after transfection
Protocol: A set of corresponding reactants specific for the HPV16 E6/E7 gene were transfected into Caski cells to evaluate non-traceless nucleic acid templated assembly on tumor-associated targets in living cells. Sandwich enzymatic detection was used to confirm that templated assembly ligation product was preferentially formed in Caski cells rather than related cell lines lacking HPV16 E6/E7 sequence
Caski and HeLa cell lines were cultured in DMEM medium with 10% heat inactivated fetal bovine serum. For each experimental condition, 1×10^6 cells were plated in a T-25 flask 24 hours before transfection. A flask from each cell line was transfected with both templated assembly reactants (experimental), and Caski flasks were also transfected with each one of the reactants in isolation as well (negative controls).
Lipofectamine 2000 (Invitrogen) was used as the transfection reagent in accordance with the manufacturer's instructions Immediately prior to transfection, cell flasks were washed with 1×PBS and Optimem serum-free medium was added as the growth medium. […] Separately, 11 uL of Lipofectamine 2000 was incubated with 275 uL of Optimem serum-free medium for 15 minutes. […] 500 uL of the Oligo-3.1-Lipofectamine transfection solution was then dispensed to the experimental flask. […]

In the case of “5′-FAM-CCAGAUGUCUUUGCU-Azide-3′ [Oligo-3.1]”, the “Corrected Absorbance A450” value is reported as 0.003.

Reference: patent US10603385B2, “Methods and compositions for templated assembly of nucleic acid specific heterocompounds” (priority 2013, dated 2020)
